Patent publication US9109003B2, “Extraction method for Ilex kudingcha C. J. Tseng leaves, total saponins and use thereof” (Peking University, priority 2011, dated 2015)

Tested on: ApoE−/− mice
Experiment: Arteriosclerotic area of ApoE−/− mice aortic outflow tract
Assay type: in vivo
Conditions: high fat diet, vs HG (p<0.01), atorvastatin 50 mg/kg/d, total saponins 300 mg/kg/d, 6 weeks
Text: ApoE−/− mice were divided into four groups randomly by weight.
(1) Negative control group (CG): mice in this group were fed normally for 7 weeks, and intragastrically administrated with normal saline.
(2) High fat control group (HG): mice in this group were fed with high fat diet containing 0.2% cholesterol for 7 weeks, and intragastrically administrated with normal saline every day simultaneously.
(4) I. kudingcha total saponin therapeutic group (SG): the course of treatment is similar to that of AG, with the only difference between SG and AG lies in that the dosage of the total saponins from I. kudingcha is 300 mg/kg/d.
Effect of total saponins from I. kudingcha leaves on arteriosclerotic area of ApoE−/− mice aortic outflow tract is shown in FIG. 7.

SMILES: CC(C)c1c(C(=O)Nc2ccccc2)c(-c2ccccc2)c(-c2ccc(F)cc2)n1CC[C@@H](O)C[C@@H](O)CC(=O)O [atorvastatin]
- inhibition rate of formation of atherosclerotic plaque of aortic outflow tract: about 40%
